According to patent US20090023741A1, “ARYL/HETARYLAMIDES AS MODULATORS OF THE EP2 RECEPTOR” (priority 2007, published 2009):

What was measured:
[1] = tested on: cumulus-oocyte complexes (cumulus expansion); assay: Cumulus expansion assay in vitro; type: cell-based, mice; conditions: in competition with PGE2
Procedure: Folliculogenesis is induced in immature female mice (strain: CD1 (ICR) from Charles River) at an age of 14-18 days by a single dose (intraperitoneal) of 10 I.U. of PMSG (Pregnant Mare Serum Gonadotropine; Sigma G-4877, Lot 68H0909). 47-50 hours after the injection, the ovaries are removed and the cumulus-oocyte complexes are removed. The cumulus complex is not yet expanded at this stage.
The cumulus-oocyte complexes are then incubated with prostaglandin E2 (PGE2) (0.3 μM), vehicle control (ethanol) or test substances for 20-24 hours. Medium: alpha-MEM medium with 0.1 mM IBMX, pyruvates (0.23 mM) glutamines (2 mM), pen/strep 100 IU/ml pen. and 100 μg/ml strep.) and HSA (8 mg/ml)). Cumulus expansion is then established through the division into four stages (according to Vanderhyden et al. Dev Biol. 1990 August; 140(2):307-317).

[2] = target: T1, EP2 subtype of the human PGE2 receptor (Homo sapiens, UniProt P43116); assay: cAMP antagonism assay (HTRF, PGE2-stimulated cells); type: cell-based; conditions: in presence of PGE2
T1 construct: host or cells: cells in a cell culture plate
Procedure: (§1) The binding of PGE2 to the EP2 subtype of the human PGE2 receptor induces activation of membrane-associated adenylate cyclases and leads to the formation of cAMP. In the presence of the phosphodiesterase inhibitor IBMX, cAMP which has accumulated due to this stimulation and been released by cell lysis is employed in a competitive detection method. In this assay, the cAMP in the lysate competes with cAMP-XL665 for binding of an Eu cryptate-labelled anti-cAMP antibody.
(§2) The two signals are measured in a suitable measuring instrument with a time lag, i.e. after the background fluorescence has declined.
(§3) The substance solutions (0.75 μl) introduced into an assay plate and 30% DMSO are dissolved in 16 μl of a KRSB+IBMX stimulation solution (1× Krebs-Ringer Bicarbonate Buffer; Sigma-Aldrich # K-4002; including 750 μM 3-isobutyl-1-methylxanthine Sigma-Aldrich # I-7018), and then 15 μl thereof are transferred into a media-free cell culture plate which has been washed with KRSB shortly beforehand.
After preincubation at room temperature (RT) for 30 minutes, 5 μl of a 4×PGE2 solution (11 nM) are added, and incubation is carried out in the presence of the agonist at RT for a further 60 min (volume: ˜20 μl) before the reaction is then stopped by adding 5 μl of lysis buffer and incubated at RT for a further 20 min (volume: 25 μl). The cell lysate is then transferred into a measuring plate and measured in accordance with the manufacturer's information (cyclic AMP kit Cisbio International # 62AMPPEC).

[3] = target: T1, EP2 subtype of the human PGE2 receptor; assay: cAMP agonism assay (cellular agonism test); type: cell-based; conditions: without PGE2
Procedure: as §1, §2, §3
After incubation at room temperature (RT; volume: ˜15 μl) for 60 minutes, the reaction is then stopped by adding 5 μl of lysis buffer and incubated at RT for a further 20 min (volume: ˜20 μl). The cell lysate is then transferred into a measuring plate and measured in accordance with the manufacturer's information (cyclic AMP kit Cisbio International # 62AMPPEC).

T1 sequence (P43116 whole entry): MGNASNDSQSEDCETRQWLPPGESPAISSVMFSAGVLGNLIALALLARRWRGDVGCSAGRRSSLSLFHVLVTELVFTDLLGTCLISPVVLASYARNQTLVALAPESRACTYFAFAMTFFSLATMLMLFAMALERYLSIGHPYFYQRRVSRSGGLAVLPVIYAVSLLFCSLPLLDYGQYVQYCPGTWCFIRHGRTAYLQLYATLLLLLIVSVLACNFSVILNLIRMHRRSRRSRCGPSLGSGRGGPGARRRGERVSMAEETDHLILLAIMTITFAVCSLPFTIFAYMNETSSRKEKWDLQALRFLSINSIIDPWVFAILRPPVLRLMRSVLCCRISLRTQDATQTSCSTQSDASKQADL

Row | SMILES | inhibition of cumulus expansion ([1]; concentration 100-200 μM) [%] | IC50 [2] [nM] | effect in the cellular agonism test [3] | inhibition at 10 µM ([1]; Mus musculus, concentration 10 μM) [%]
1 | CC(C)Oc1ccc2c(=O)c3cc(C(=O)O)ccc3oc2c1 [AH 6809, reference compound] | ~30 | – | – | –
2 | COc1cc(C(=O)NCCc2c(C)[nH]c3c(F)ccc(C)c23)cc(OC)c1OC [Example 2, N-[2-(7-Fluoro-2,4-dimethyl-1H-indol-3-yl)ethyl]-3,4,5-trimethoxybenzamide] | – | 6800 | – | –
3 | Cc1[nH]c2c(F)ccc(C)c2c1CCNC(=O)c1ccc(C(F)(F)F)cc1 [Example 6, N-[2-(7-Fluoro-2,4-dimethyl-1H-indol-3-yl)ethyl]-4-trifluoromethylbenzamide] | – | 1500 | – | –
4 | Cc1[nH]c2c(F)ccc(C)c2c1CCNC(=O)c1ccc(-c2ccc(F)cc2)cc1 [Example 29, 4′-Fluorobiphenyl-4-carboxylic acid [2-(7-fluoro-2,4-dimethyl-1H-indol-3-yl)ethyl]amide] | – | 1200 | no inhibition | ~20
